The subject of assay [1] is patients with idiopathic Parkinson's disease. As to the kind of experiment: Double-blind study in idiopathic Parkinson's disease (UPDRS). The assay is classed as in vivo, human. The following applies: add on, 2.5 to 10 mg b.i.d., versus placebo. The source says: A typical study to investigate the efficacy of the compounds according to the invention in the treatment of idiopathic Parkinson's disease is described in the following. 180 patients of either sex with idiopathic Parkinson's disease participate in a double-blind study. The main inclusion criteria are Hoehn & Yahr stage ≧2.0 (Hoehn H. M. et al, Neurology 1967; 17: 427-442), aged 50-80 years, symptom duration of at least 5 years. […] The dose of blinded medication is titrated over a period of 4 weeks in a range from 2.5 to 10 mg b.i.d. Then the medication is kept constant for 1 week. Before the start of titration, at the end of the treatment period and 2 weeks after the end of the tiration period an assessment is performed in each patients using the unified Parkinson's disease rating scale (UPDRS part I to V according to S. Fahn et al., in: Recent developments in Parkinson's disease, vol. 2, MacMillan health information 1987, 153-163). […] Furthermore, the efficacy to treat tremor is shown by the means of the UPDRS.

Assay [2] has as its system patients with Huntington's disease. As to the kind of experiment: Trial in patients with Huntington's disease. It counts as in vivo, human. The conditions noted are these: add on, 2.5 to 20 mg b.i.d., versus placebo. As to the method:
A typical trial to establish the effect of the compounds according to the invention on chorea, voluntary motor performance, and functional disability in patients with Huntington's disease encompasses 32 genetically diagnosed patients. […] The dose of blinded medication is titrated over a period of 3 weeks in a range from 2.5 to 20 mg b.i.d. Then the medication is held constant for 1 week. Assessments are performed in the week before and at the last day of the trial. Chorea is scored using the abnormal involuntary movement scale (AIMS, W. Guy, in: ECDEU assessment manual. Rockville Md.: US dept. of health, education and welfare, 1976: 534-537), the unified Huntington's disease rating scale (UHDRS, Huntington study group, 1996, Movement Disord, 11: 136-42), and judgement of video recordings. Voluntary motor performance is assessed using the UHDRS motor scale. Patients and their partners complete a questionnaire regarding functional disability.

In assay [3] the test system is schizophrenic inpatients on long-term stable antipsychotic treatment. The assay can be described thus: Tardive dyskinesia study in schizophrenic inpatients (AIMS). It counts as in vivo, human. The conditions noted are these: add on to antipsychotic treatment, 2.5 to 20 mg b.i.d., versus placebo period. The method, then: dyskinesia is a common adverse effect of long-term treatment with neuroleptics. A typical study to investigate the efficacy of the compounds according to the invention in tardive dyskinesia is described in the following. 32 schizophrenic (DSM-III-R) inpatients aged 25-60 years on long-term stable antipsychotic treatment (duration of at least 5 years) entered the study. […] The dose of blinded medication is titrated over a period of 3 weeks in a range from 2.5 to 20 mg b.i.d. Then the medication is maintained under double-blind conditions for 2 weeks. After a 2-week wash-out period, the test drugs are crossed over. Assessments of tardive dyskinesia by means of the Abnormal Involuntary Movement Scale (AIMS, see above) and of Parkinsonian extrapyramidal side effects (UPDRS, see above) are made pretreatment and posttreatment.

Assay [4] relates to patients with advanced idiopathic Parkinson's disease complicated by "peak-dose" dyskinesia. The assay can be described thus: Double-blind cross-over study, advanced idiopathic Parkinson's disease with peak-dose dyskinesia. The following applies: add on, 2.5 to 10 mg b.i.d., versus placebo; first hour in the on state. The assay is classed as in vivo, human. The source says: A typical study to investigate the efficacy of the compounds according to the invention for adverse effects in Parkinson's disease is described in the following. 40 patients of either sex with advanced idiopathic Parkinson's disease complicated by “peak-dose” dyskinesia participate in a double-blind, cross-over study. The main inclusion criteria are Hoehn & Yahr stage ≧2.5 (lit.: Hoehn H. M. et al, Neurology 1967; 17: 427-442), aged 40-75 years, symptom duration of at least 5 years, and a I-dopa treatment duration of at least 3 years. […] The dose of blinded medication is titrated over a period of 3 weeks in a range from 2.5 to 10 mg b.i.d. Then the medication is kept constant for 1 week. Before the start of titration and at the end of the treatment period a I-dopa challenge is performed according to […] et al. (Movement Disord, 1999, 14 (Suppl. 1), 54-59) using video recording. The main outcome measure of the protocol is the mean score for dyskinesia during the first hour in the “on” state after I-dopa challenge. Therefore, the investigator assesses every minute the severity of dyskinesia (0=absent, 4=severe disabling involuntary movements) from 0 to 4 in seven parts of the body (upper and lower limbs, face, trunk, neck). After a 2-week wash-out period the two study arms are crossed over and the protocol is repeated.

The test system of assay [5] is patients with cervical dystonia (spasmodic torticollis). The assay can be described thus: Double-blind placebo-controlled study in cervical dystonia (TWSTRS). The assay is classed as in vivo, human. The conditions noted are these: 2.5 mg to 20 mg b.i.d.
In another assay the test system is MSA patients. As to the kind of experiment: Study in MSA patients (UPDRS). The conditions noted are these: add on, 2.5 to 20 mg b.i.d., versus placebo, cross-over. The assay is classed as in vivo, human. The method, then: A typical study to investigate the efficacy of the compounds according to the invention in MSA patients encompasses 30 patients of either sex with a symptom duration of at least 5 years and a significant reduction of central dopamine receptors in positron emission tomography (PET) scan. The study design is similar to that described above for Parkinson's disease. […] Before the start of titration and at the end of the treatment period a complete UPDRS assessment is performed in each patient (primary outcome measure). After a 2-week wash-out period the two study arms are crossed over and the protocol is repeated.

The subject of the next assay is Parkinson patients. The conditions noted are these: literature reports; cited from earlier work.

In the case of `Cl.Fc1ccc(-c2cncc(CNC[C@H]3CCc4ccccc4O3)c2)cc1` [(R)-(−)-2-[5-(4-fluorophenyl)-3-pyridylmethylaminomethyl]-chromane hydrochloride], in assay [1], the UPDRS scores entry is given as “significant clinical improvement”. Besides, in assay [2] (AIMS, UHDRS, video recordings), the “involuntary motor performance (chorea)” value is “significant improvement”. For the same compound, the voluntary motor performance entry in assay [2] (UHDRS motor scale) was “significant improvement”. Besides, in assay [3], the AIMS scores result is on record as “significantly lower than during placebo period”. Further, the “mean dyskinesia scores after I-dopa challenge” value in assay [4] was “significant clinical improvement”. In assay [5], the TWSTRS scores entry is recorded as “significant improvement”. Moreover, the UPDRS entry in the assay on MSA patients was “significant clinical improvement”.
Take `O=C1CC2(CCCC2)CC(=O)N1CCCCN1CCN(c2ncccn2)CC1` [buspirone]: the “anti-dyskinetic effect in Parkinson patients” value in the assay on Parkinson patients was “moderate anti-dyskinetic properties”.

The values above are taken from patent US7928128B2, “Use of(R)-(−) -2-[5-(4-fluorophenyl)-3-pyridylmethylaminomethyl]-chromane and its physiologically acceptable salts” (Merck Patent Gesellschaft mit beschrankter Haftung, priority 2000, dated 2011).
